Columns and labels:
Test in all cases: relative viability (nuclei count vs DMSO), 5 days (fraction); higher = more cells survive
BAM7 + Palbociclib = compound: CCOC1=CC=CC=C1N=NC2=C(NN(C2=O)C3=NC(=CS3)C4=CC=CC=C4)C [BAM7] + CC(=O)c1c(C)c2cnc(Nc3ccc(N4CCNCC4)cn3)nc2n(C2CCCC2)c1=O [Palbociclib] (partner 0.5 µM)
Procedure, shortened: (§1)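 For relative viability, nuclei counts in treated wells were divided by those in vehicle wells. Lung cancer cell lines had been pin-tool dosed in 1536-well plates the day after seeding and cultured for 5 days, then fixed and stained in one step (final 0.05% Triton X-100, 1% formaldehyde, 1 ug/ml Hoechst) and imaged at 4×. Doses were one drug alone or a fixed anchor-drug dose plus five library-drug doses (not always all listed) in √10 steps, and values are duplicate-plate medians.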

BAM7 + Linsitinib = compound: CCOC1=CC=CC=C1N=NC2=C(NN(C2=O)C3=NC(=CS3)C4=CC=CC=C4)C [BAM7] + C[C@]1(O)C[C@@H](c2nc(-c3ccc4ccc(-c5ccccc5)nc4c3)c3c(N)nccn32)C1 [Linsitinib] (partner 1 µM)
Procedure, shortened: as §1

BAM7 + Olaparib = compound: CCOC1=CC=CC=C1N=NC2=C(NN(C2=O)C3=NC(=CS3)C4=CC=CC=C4)C [BAM7] + O=C(c1cc(Cc2n[nH]c(=O)c3ccccc23)ccc1F)N1CCN(C(=O)C2CC2)CC1 [Olaparib] (partner 8 µM)
Procedure, shortened: as §1

[1] = compound: CCn1c(-c2nonc2N)nc2c(C#CC(C)(C)O)ncc(OC[C@H]3CCCNC3)c21 + C[C@@H](Oc1cc(-c2cnn(C3CCNCC3)c2)cnc1N)c1c(Cl)ccc(F)c1Cl [Crizotinib] (partner 1 µM)
Procedure, shortened: as §1

For UMC-11, the relative viability (BAM7 + Palbociclib; first compound 0.5 µM) was 0.32, the relative viability (BAM7 + Palbociclib; first compound 5 µM) was 0.341 and the relative viability (BAM7 + Palbociclib; first compound 15.81 µM) was 0.342. For the same cell line, the relative viability (BAM7 + Palbociclib; first compound 50 µM) was 0.336, the relative viability (BAM7 + Linsitinib; first compound 0.5 µM) was 1.12 and the relative viability (BAM7 + Linsitinib; first compound 5 µM) was 1.05. The relative viability (BAM7 + Linsitinib; first compound 15.81 µM) was 1.07, the relative viability (BAM7 + Linsitinib; first compound 50 µM) was 1.09 and the relative viability (BAM7 + Olaparib; first compound 0.5 µM) was 0.305. It also gave a relative viability (BAM7 + Olaparib; first compound 5 µM) of 0.388, a relative viability (BAM7 + Olaparib; first compound 15.81 µM) of 0.462 and a relative viability (BAM7 + Olaparib; first compound 50 µM) of 0.377. For the same cell line, the relative viability ([1]; first compound 0.01 µM) was 0.704, the relative viability ([1]; first compound 0.03162 µM) was 0.695 and the relative viability ([1]; first compound 0.1 µM) was 0.65. The relative viability ([1]; first compound 0.3162 µM) was 0.645 and the relative viability ([1]; first compound 1 µM) was 0.547.

From the supplement of paper PMC10307832
